Measurements reported in article PMC6385122, “Design and Synthesis of Arylamidine Derivatives as Serotonin/Norepinephrine Dual Reuptake Inhibitors” (Molecules, 2019).
Counter-ions that a name gives are not always drawn.

Row | melting point | SMILES
1 | 202 to 204 °C | O=[N+]([O-])c1ccc(/C(=N\Cc2cccc3ccccc23)N2CCNCC2)cc1 (as salt: hydrochloride) [II-2, (E)-1-(Naphthalen-1-yl)-N-((4-nitrophenyl)(piperazin-1-yl)methylene)methanaminehydrochloride]
2 | 193 to 195 °C | Fc1ccc(/C(=N\Cc2cccc3ccccc23)N2CCNCC2)cc1 (as salt: hydrochloride) [II-3, (E)-N-((4-Fluorophenyl)(piperazin-1-yl)methylene)-1-(naphthalen-1-yl)methanaminehydrochloride]
3 | 198 to 200 °C | Clc1cccc(/C(=N\Cc2cccc3ccccc23)N2CCNCC2)c1 (as salt: hydrochloride) [II-6, (E)-N-((3-Chlorophenyl)(piperazin-1-yl)methylene)-1-(naphthalen-1-yl)methanaminehydrochloride]
4 | 210 to 212 °C | Clc1ccc(/C(=N\Cc2cccc3ccccc23)N2CCNCC2)cc1 (as salt: hydrochloride) [II-7, (E)-N-((4-Chlorophenyl)(piperazin-1-yl)methylene)-1-(naphthalen-1-yl)methanaminehydrochloride]
5 | 158 to 160 °C | N#Cc1ccc(/C(=N\Cc2cccc3ccccc23)N2CCNCC2)cc1 (as salt: hydrochloride) [II-8, (E)-4-(((Naphthalen-1-ylmethyl)imino)(piperazin-1-yl)methyl)benzonitrilehydrochloride]
6 | 168 to 170 °C | N#Cc1cccc(/C(=N\Cc2cccc3ccccc23)N2CCNCC2)c1 (as salt: hydrochloride) [II-9, (E)-3-(((Naphthalen-1-ylmethyl)imino)(piperazin-1-yl)methyl)benzonitrilehydrochloride]
7 | 178 to 180 °C | Cc1ccc(/C(=N\Cc2cccc3ccccc23)N2CCNCC2)cc1 (as salt: hydrochloride) [II-10, (E)-1-(Naphthalen-1-yl)-N-(piperazin-1-yl(p-tolyl)methylene)methanaminehydrochloride]
8 | 173 to 175 °C | O=[N+]([O-])c1cccc2c(/C(=N\Cc3ccccc3)N3CCNCC3)cccc12 (as salt: hydrochloride) [III-1, (E)-N-((5-Nitronaphthalen-1-yl)(piperazin-1-yl)methylene)-1-phenylmethanaminehydrochloride]

The remaining lines, values behind:

Row | SMILES | melting point
9 | Fc1ccccc1/C(=N\Cc1ccccc1)N1CCNCC1 (as salt: hydrochloride) [Compound I-7, (E)-N-((2-Fluorophenyl)(piperazin-1-yl)methylene)-1-phenylmethanaminehydrochloride] | 182 to 184 °C
10 | N#Cc1ccc(/C(=N\Cc2ccccc2)N2CCNCC2)cc1 (as salt: hydrochloride) [Compound I-8, (E)-4-((Benzylimino)(piperazin-1-yl)methyl)benzonitrilehydrochloride] | 205 to 207 °C
11 | N#Cc1cccc(/C(=N\Cc2ccccc2)N2CCNCC2)c1 (as salt: hydrochloride) [Compound I-9, (E)-3-((Benzylimino)(piperazin-1-yl)methyl)benzonitrilehydrochloride] | 190 to 192 °C
12 | Cc1ccc(/C(=N\Cc2ccccc2)N2CCNCC2)cc1 (as salt: hydrochloride) [Compound I-10, (E)-1-Phenyl-N-(piperazin-1-yl(p-tolyl)methylene)methanaminehydrochloride] | 172 to 174 °C
13 | O=[N+]([O-])c1ccc(/C(=N\Cc2ccccc2)N2CCNCC2)c(Cl)c1 (as salt: hydrochloride) [Compound I-11, (E)-N-((2-Chloro-4-nitrophenyl)(piperazin-1-yl)methylene)-1-phenylmethanaminehydrochloride] | 195 to 197 °C
14 | O=[N+]([O-])c1ccc(/C(=N\Cc2ccc(Cl)cc2)N2CCNCC2)cc1 (as salt: hydrochloride) [Compound I-12, (E)-1-(4-Chlorophenyl)-N-((4-nitrophenyl)(piperazin-1-yl)methylene)methanaminehydrochloride] | 172 to 174 °C
15 | Clc1ccc(C/N=C(\c2ccccc2Cl)N2CCNCC2)cc1 (as salt: hydrochloride) [Compound I-13, (E)-1-(4-Chlorophenyl)-N-((2-chlorophenyl)(piperazin-1-yl)methylene)methanaminehydrochloride] | 181 to 183 °C
16 | Clc1ccc(C/N=C(\c2cccc(Cl)c2)N2CCNCC2)cc1 (as salt: hydrochloride) [Compound I-14, (E)-1-(4-Chlorophenyl)-N-((3-chlorophenyl)(piperazin-1-yl)methylene)methanaminehydrochloride] | 218 to 220 °C
17 | Clc1ccc(C/N=C(\c2ccc(Cl)cc2)N2CCNCC2)cc1 (as salt: hydrochloride) [Compound I-15, (E)-1-(4-Chlorophenyl)-N-((4-chlorophenyl)(piperazin-1-yl)methylene)methanaminehydrochloride] | 157 to 159 °C
18 | Fc1ccc(/C(=N\Cc2ccc(Cl)cc2)N2CCNCC2)cc1 (as salt: hydrochloride) [Compound I-16, (E)-1-(4-Chlorophenyl)-N-((4-fluorophenyl)(piperazin-1-yl)methylene)methanaminehydrochloride] | 165 to 167 °C
19 | Fc1ccccc1/C(=N\Cc1ccc(Cl)cc1)N1CCNCC1 (as salt: hydrochloride) [Compound I-17, (E)-1-(4-Chlorophenyl)-N-((2-fluorophenyl)(piperazin-1-yl)methylene)methanaminehydrochloride] | 215 to 217 °C
20 | N#Cc1ccc(/C(=N\Cc2ccc(Cl)cc2)N2CCNCC2)cc1 (as salt: hydrochloride) [Compound I-18, (E)-1-(4-Chlorophenyl)-N-((4-cyanophenyl)(piperazin-1-yl)methylene)methanaminehydrochloride] | 180 to 182 °C
21 | Cc1ccc(/C(=N\Cc2ccc(Cl)cc2)N2CCNCC2)cc1 (as salt: hydrochloride) [Compound I-20, (E)-1-(4-Chlorophenyl)-N-(piperazin-1-yl(p-tolyl)methylene)methanaminehydrochloride] | 183 to 185 °C
22 | COc1ccc(C/N=C(\c2ccc([N+](=O)[O-])cc2)N2CCNCC2)cc1 (as salt: hydrochloride) [Compound I-21, (E)-1-(4-Methoxyphenyl)-N-((4-nitrophenyl)(piperazin-1-yl)methylene)methanaminehydrochloride] | 210 to 212 °C
23 | c1ccc(/C(=N\Cc2cccc3ccccc23)N2CCNCC2)cc1 (as salt: hydrochloride) [II-1, (E)-1-(Naphthalen-1-yl)-N-(phenyl(piperazin-1-yl)methylene)methanaminehydrochloride] | 187 to 189 °C
